Legend:
[1] = target: T1, MMP-9 (Homo sapiens, UniProt P14780); test: Thiopeptilide MMP-9 Inhibition Assay; type: biochemical; conditions: for IC50: pH 6.5, x (n) = average of n determinations, read-out: MMP-9: Thiopep. IC50; for inhibition at 5 µM: read-out: MMP-9: Thiopep. % inhibition
T1 construct: from tissue; host or cells: human polymorphonuclear leukocytes (PMN) from whole blood (New York Blood Center), PMA-stimulated supernatant

[2] = target: T2, MMP-3 (Homo sapiens, UniProt P08254); test: Primary Thiopeptilide MMP-3 Inhibition Assay; type: biochemical; conditions: for IC50: pH 6.5, 13 nM stromelysin, x (n) = average of n determinations, read-out: MMP-3 Thiopep. IC50; for inhibition at 5 µM: read-out: MMP-3 Thiopep. % inhibition
T2 construct: Truncated Prostromelysin-257 was expressed in a soluble form in E.coli; made in house; host or cells: E. coli
T2 sequence (P08254 100-274 limits assumed): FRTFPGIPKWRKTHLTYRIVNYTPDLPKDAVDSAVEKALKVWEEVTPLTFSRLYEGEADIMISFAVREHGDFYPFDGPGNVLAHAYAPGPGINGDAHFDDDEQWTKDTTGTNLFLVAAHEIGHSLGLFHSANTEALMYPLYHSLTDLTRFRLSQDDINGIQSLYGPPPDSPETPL

T1 sequence (P14780 107-707 limits assumed): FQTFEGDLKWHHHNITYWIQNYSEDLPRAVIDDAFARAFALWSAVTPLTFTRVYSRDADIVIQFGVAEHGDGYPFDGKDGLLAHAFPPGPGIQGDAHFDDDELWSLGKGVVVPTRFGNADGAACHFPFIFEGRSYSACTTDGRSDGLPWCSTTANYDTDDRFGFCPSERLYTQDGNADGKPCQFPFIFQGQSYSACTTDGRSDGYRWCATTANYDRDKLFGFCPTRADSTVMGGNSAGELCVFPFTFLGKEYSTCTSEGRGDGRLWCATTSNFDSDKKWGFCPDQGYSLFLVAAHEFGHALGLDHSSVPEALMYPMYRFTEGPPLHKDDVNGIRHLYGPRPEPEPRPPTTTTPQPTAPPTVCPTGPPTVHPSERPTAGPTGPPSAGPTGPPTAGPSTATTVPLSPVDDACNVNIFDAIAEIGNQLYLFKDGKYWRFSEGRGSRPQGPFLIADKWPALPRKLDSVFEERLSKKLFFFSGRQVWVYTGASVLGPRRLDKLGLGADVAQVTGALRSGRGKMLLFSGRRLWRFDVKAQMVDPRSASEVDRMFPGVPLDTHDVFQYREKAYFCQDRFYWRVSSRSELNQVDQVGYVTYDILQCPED

SMILES | IC50 [1] [nM] | IC50 [2] [nM] | inhibition at 5 µM [1] [%] | inhibition at 5 µM [2] [%]
O=C(CC(Sc1ccccc1)C(=O)O)c1ccc(-c2ccc(Cl)cc2)cc1 (stereo not drawn) [Example 251, [1,1'-Biphenyl]-4-butanoic acid, 4'-chloro-γ-oxo-α-(phenylthio)-] | 7500 | 640 | – | –
O=C(CC(CCCc1ccccc1)C(=O)O)c1ccc(-c2ccc(O)cc2)cc1 (stereo not drawn) [Example 83, [1,1'-Biphenyl]-4-butanoic acid, 4'-hydroxy-γ-oxo-α-(3-phenylpropyl)-] | 1400 | 720 | – | –
O=C(O)CC1(CC(=O)c2ccc(-c3ccc(Cl)cc3)cc2)CCCCC1 [Example 339, Cyclohexaneacetic acid, 1-[2-(4'-chloro[1,1'-biphenyl]-4-yl)-2-oxoethyl]-] | 1500 | 1700 | – | –
CCCCCCCOc1ccc(-c2ccc(C(=O)CC(CCCc3ccccc3)C(=O)O)cc2)cc1 (stereo not drawn) [Example 92, [1,1'-Biphenyl]-4-butanoic acid, 4'-(heptyloxy)-γ-oxo-α-(3-phenylpropyl)-] | – | – | 26 | 60
CC1=CC[C@@H](C(=O)c2ccc(-c3ccc(Cl)cc3)cc2)[C@H](C(=O)O)C1 (relative stereo) [Example 329, 3-Cyclohexene-1-carboxylic acid, 6-[(4'-chloro[1,1'-biphenyl]-4-yl)carbonyl]-3-methyl-, trans-] | 8000 | – | – | 58
O=C(c1ccc(-c2ccc(Cl)cc2)cc1)[C@H]1CCC[C@H]1C(=O)O (relative stereo) [Example 288, Cyclopentanecarboxylic acid, 2-[(4'-chloro[1,1'-biphenyl]-4-yl)carbonyl]-, cis-] | – | – | 46 | 40
CC(C)CC(CCC(=O)c1ccc(-c2ccc(Cl)cc2)cc1)C(=O)O (stereo not drawn) [Example 338, [1,1'-Biphenyl]-4-pentanoic acid, 4'-chloro-α-(2-methylpropyl)-δ-oxo-] | – | – | 32 | 24
CC(C)CC(CC(=O)c1ccc(-c2ccccc2Cl)cc1)C(=O)O (stereo not drawn) [Example 18, [1,1'-Biphenyl]-4-butanoic acid, 2'-chloro-α-(2-methylpropyl)-γ-oxo-] | – | – | 9 | 0.3

The next lines start with the values.

IC50 [1] [nM] | IC50 [2] [nM] | inhibition at 5 µM [1] [%] | inhibition at 5 µM [2] [%] | SMILES
100 | 150 | – | – | CCCOc1ccc(-c2ccc(C(=O)CC(CCCc3ccccc3)C(=O)O)cc2)cc1 (stereo not drawn) [Example 84, [1,1'-Biphenyl]-4-butanoic acid, γ-oxo-α-(3-phenylpropyl)-4'-propoxy-]
417 | 950 | – | – | COc1ccc(SCC(CC(=O)c2ccc(-c3ccc(Cl)cc3)cc2)C(=O)O)cc1 (stereo not drawn) [Example 206, [1,1'-Biphenyl]-4-butanoic acid, 4'-chloro-α-[[(4-methoxyphenyl)thio]methyl]-γ-oxo-]
600 | 260 | – | – | O=C(CC(CSc1ccccc1Br)C(=O)O)c1ccc(-c2ccc(Cl)cc2)cc1 (stereo not drawn) [Example 219, [1,1'-Biphenyl]-4-butanoic acid, 4'-chloro-α-[[(2-bromophenyl)thio]methyl]-4'-chloro-γ-oxo-]
390 | 340 | – | – | O=C(CC(CSc1ccc(Cl)cc1)C(=O)O)c1ccc(-c2ccc(Cl)cc2)cc1 (stereo not drawn) [Example 209, [1,1'-Biphenyl]-4-butanoic acid, 4'-chloro-α-[[(4-chlorophenyl)thio]methyl]-γ-oxo-]
500 | 980 | – | – | O=C(CC(CCCc1ccccc1)C(=O)O)c1ccc(-c2ccc([N+](=O)[O-])cc2)cc1 (stereo not drawn) [Example 63, [1,1'-Biphenyl]-4-butanoic acid, 4'-nitro-γ-oxo-α-(3-phenylpropyl)-]
390 | 650 | – | – | CCc1ccc(SCC(CC(=O)c2ccc(-c3ccc(Cl)cc3)cc2)C(=O)O)cc1 (stereo not drawn) [Example 212, [1,1'-Biphenyl]-4-butanoic acid, 4'-chloro-α-[[(4-ethylphenyl)thio]methyl]-γ-oxo-]
50 | 121 | – | – | O=C(CC(CCCc1ccccc1)C(=O)O)c1ccc(-c2ccc(I)cc2)cc1 (stereo not drawn) [Example 40, [1,1'-Biphenyl]-4-butanoic acid, 4'-iodo-γ-oxo-α-(3-phenylpropyl)-]
